Experiment in all cases: TPP-CCR in living HL-60 cells
What all share (format): cell-based

One assay concerns the target T1, POR (Homo sapiens, UniProt P16435).
T1 construct: endogenous in cells; host or cells: HL-60 (ATCC CCL-240)
T1 sequence (P16435 1-677): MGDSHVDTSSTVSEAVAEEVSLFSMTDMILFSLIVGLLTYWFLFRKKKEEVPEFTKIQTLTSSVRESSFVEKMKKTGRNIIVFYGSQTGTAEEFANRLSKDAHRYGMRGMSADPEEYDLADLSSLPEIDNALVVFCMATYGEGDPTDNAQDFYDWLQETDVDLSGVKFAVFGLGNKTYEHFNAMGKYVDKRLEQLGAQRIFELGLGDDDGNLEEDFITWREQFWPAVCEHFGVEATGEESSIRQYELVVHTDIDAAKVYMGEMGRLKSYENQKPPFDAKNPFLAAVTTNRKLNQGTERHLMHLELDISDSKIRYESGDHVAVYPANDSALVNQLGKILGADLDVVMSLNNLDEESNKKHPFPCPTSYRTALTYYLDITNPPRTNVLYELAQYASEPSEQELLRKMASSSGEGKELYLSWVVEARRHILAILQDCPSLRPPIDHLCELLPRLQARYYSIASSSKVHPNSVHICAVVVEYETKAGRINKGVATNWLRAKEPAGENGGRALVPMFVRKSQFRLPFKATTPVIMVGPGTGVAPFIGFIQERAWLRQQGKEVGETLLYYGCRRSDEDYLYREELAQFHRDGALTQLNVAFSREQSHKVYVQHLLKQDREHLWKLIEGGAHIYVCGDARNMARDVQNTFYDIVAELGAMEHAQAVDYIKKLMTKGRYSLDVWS

A further assay concerns the target T2, PDCD4 (Homo sapiens, UniProt Q53EL6).
T2 construct: endogenous in cells; host or cells: HL-60 (ATCC CCL-240)
T2 sequence (Q53EL6 1-469): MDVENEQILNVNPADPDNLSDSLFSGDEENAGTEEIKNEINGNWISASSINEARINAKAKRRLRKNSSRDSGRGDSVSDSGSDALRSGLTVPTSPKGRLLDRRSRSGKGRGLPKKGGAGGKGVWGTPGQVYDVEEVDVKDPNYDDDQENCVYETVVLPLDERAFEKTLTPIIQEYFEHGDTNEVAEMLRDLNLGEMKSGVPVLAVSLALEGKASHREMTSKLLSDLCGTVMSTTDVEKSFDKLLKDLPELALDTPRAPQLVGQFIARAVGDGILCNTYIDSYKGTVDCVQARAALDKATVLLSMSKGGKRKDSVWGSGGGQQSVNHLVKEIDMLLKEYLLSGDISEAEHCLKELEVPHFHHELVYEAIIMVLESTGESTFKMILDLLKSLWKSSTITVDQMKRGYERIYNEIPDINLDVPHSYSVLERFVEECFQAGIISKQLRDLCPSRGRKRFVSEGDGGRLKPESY

The target in another assay is T3, ANP32E (Homo sapiens, UniProt Q9BTT0).
T3 construct: dose–responses (mean over replicates), derived from TPP-CCR experiments in living cells; endogenous in cells; host or cells: HL-60 cells (ATCC No. CCL-240)
T3 sequence (Q9BTT0 whole entry): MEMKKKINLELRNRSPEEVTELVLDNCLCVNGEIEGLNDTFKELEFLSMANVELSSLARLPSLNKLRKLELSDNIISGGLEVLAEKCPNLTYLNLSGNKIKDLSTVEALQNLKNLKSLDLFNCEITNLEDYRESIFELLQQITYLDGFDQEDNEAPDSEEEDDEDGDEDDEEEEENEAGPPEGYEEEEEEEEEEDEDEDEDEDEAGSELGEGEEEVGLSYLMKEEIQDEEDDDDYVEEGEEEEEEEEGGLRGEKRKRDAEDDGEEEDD

[1] abbreviates: living HL-60 cells, […] °C, TMT-MS.

Each structure is given as a SMILES string.

On to `Cc1cnc(Nc2ccc(F)cc2Cl)nc1-c1c[nH]c(C(=O)N[C@H](CO)c2cccc(Cl)c2)c1` [ERK 11e], for which the Hill slope on POR (TPP-CCR, living cells, POR) is 0.73; at PDCD4 (TPP-CCR, living cells, PDCD4) it was 0.69; on ANP32E (TPP-CCR, living cells, ANP32E) it was 0.58. For the same molecule, the EC50 on POR (setting [1]) was 1290 nM; on PDCD4 (living HL-60 cells, […] °C, TMT-MS, read-out: pEC50 (PDCD4) (converted)), 1050 nM; at ANP32E (living HL-60 cells, […] °C, TMT-MS, read-out: pEC50 (ANP32E) (converted)), 166 nM. Further, the “Hill slope (POR)” value at POR (setting [1]) was found to be 0.73. The “Hill slope (PDCD4)” value on PDCD4 (setting [1]) was 0.69. Also, the “Hill slope (ANP32E)” value on ANP32E (setting [1]) worked out at 0.58.

As a reminder, the Hill slope is a measure of the steepness of the concentration-response curve.

Source of the values: publication PMC9147192, “Small Molecule Arranged Thermal Proximity Coaggregation (smarTPCA)—A Novel Approach to Characterize Protein–Protein Interactions in Living Cells by Similar Isothermal Dose–Responses” (International Journal of Molecular Sciences, 2022).
